Literature values as cited in paper PMC12525602, “Identification of Selective α-Glucosidase Inhibitors via Virtual Screening with Machine Learning” (Molecules, 2025).

Test system: α-glucosidase
Conditions: Table S5 modeling dataset; activity label 1 = active, 0 = inactive; cited from earlier work

SMILES	activity
Fc1ccc(CSc2nnc(COc3cccc4cccnc34)o2)c(F)c1 [compound 108]	0
Brc1ccc(CSc2nnc(COc3cccc4cccnc34)o2)cc1 [compound 107]	0
O=C(c1ccccc1)c1ccc2nc(-c3ccc(Cl)cc3Cl)[nH]c2c1 [compound 110]	0
Fc1ccc(-n2cc(CSc3nnc(COc4cccc5cccnc45)o3)nn2)cc1 [compound 115]	0
CCCSc1nnc(COc2cccc3cccnc23)o1 [compound 123]	0
COc1cccc(C(=O)C2C(O)c3ccccc3S(=O)(=O)N2CC(=O)Nc2ccc([N+](=O)[O-])cc2)c1 (stereo not drawn) [compound 101]	0
CC1CCCN(c2ccc(/C=N/Nc3nc(-c4ccccc4)cs3)cc2)C1 (stereo not drawn) [compound 119]	0
N#Cc1c(-c2ccc(Cl)cc2)cc(-c2cccnc2)c(C#N)c1N [compound 97]	0
Clc1ccc(CSc2nnc(COc3cccc4cccnc34)o2)c(Cl)c1 [compound 111]	0
COc1cc(/C=C2\CC(=O)N(C(=O)CN3CCOCC3)C2=O)ccc1O [compound 137]	0
C[C@@H]1O[C@@H](Oc2c(-c3ccc(O)cc3)oc3cc(O)cc(O)c3c2=O)[C@H](O)[C@H](O)[C@H]1O [compound 117]	0
O=C(NNS(=O)(=O)c1cccc(Cl)c1)c1cc2cc(F)ccc2[nH]1 [compound 136]	0

Same assay, conditions: activity label in the 300-compound modeling dataset (Table S5); 1 = active, 0 = inactive; cited from earlier work

SMILES	activity
Cc1ccc(-c2cc(C(F)(F)F)nn2-c2ccc(S(=O)(=O)NC(=O)c3cccc([N+](=O)[O-])c3)cc2)cc1 [compound 200]	1
C=C(C)[C@@H]1CCC2=Cc3nc(NC(=O)c4ccc(Cl)cc4)sc3[C@@H](C)[C@]2(C)C1 [compound 220]	1
Cc1ccc(-c2cc(C(F)(F)F)nn2-c2ccc(S(=O)(=O)NC(=O)c3ccccc3[N+](=O)[O-])cc2)cc1 [compound 201]	1
O=[N+]([O-])c1ccccc1-c1nnc(/N=C(/CSc2nnc3c(n2)[nH]c2ccccc23)c2ccc(-c3ccccc3)cc2)s1 [compound 223]	1
COc1ccc(/C(CSc2nnc3c(n2)[nH]c2ccccc23)=N\c2nnc(-c3ccc([N+](=O)[O-])cc3)s2)cc1 [compound 217]	1
COc1cc(/C=C/C(=O)O)ccc1O/C(=C\c1cc(OC)c(O)c(-c2cc(/C=C/C(=O)O)cc(OC)c2O)c1)C(=O)O [compound 210]	1
Oc1cccc(-c2cc3cccc(Cl)c3o2)c1 [compound 203]	1
Cc1ccc(-c2cc(C(F)(F)F)nn2-c2ccc(S(=O)(=O)NC(=O)c3ccccc3)cc2)cc1 [compound 197]	1
C[C@@H]1O[C@@H](O[C@H]2C(=O)c3c(O)cc(O)cc3O[C@@H]2c2ccc(O)c(O)c2)[C@H](O)[C@H](O)[C@H]1O [compound 229]	1
O=C(NNS(=O)(=O)c1ccc(Cl)cc1)c1cc2cc(F)ccc2[nH]1 [compound 191]	1
COc1ccc(/C(CSc2nnc3c(n2)[nH]c2ccccc23)=N\c2nnc(-c3ccccc3[N+](=O)[O-])s2)cc1 [compound 213]	1
O=C(CCc1ccc(O)cc1)c1c(O)cc(O)cc1O[C@@H]1O[C@H](CO)[C@@H](O)[C@H](O)[C@H]1O [compound 192]	1
Oc1cccc(-c2cc3cccc(Br)c3o2)c1 [compound 209]	1
N#Cc1ccc2[nH]c(-c3nnc(Nc4ccc(Cl)c(Cl)c4)s3)cc2c1 [compound 193]	1
CC1CCN(c2ccc(/C=N/Nc3nc(-c4ccc(O)cc4)cs3)cc2)CC1 [compound 194]	1
Fc1ccc(CNc2cccc(-c3nc4ccccc4[nH]3)c2)cc1 [compound 227]	1

Same assay, conditions: activity label of the 300-compound modeling dataset, Table S5; cited from earlier work

SMILES	activity
Cc1cc(C)cc(Cn2cc(COc3ccc(-c4nc(-c5ccccc5)c(-c5ccccc5)[nH]4)cc3)nn2)c1 [compound 267]	1
O=C(COc1c(I)cc(Cl)c2cccnc12)c1ccc(Cl)cc1 [compound 241]	1
O=C(COc1c(I)cc(Cl)c2cccnc12)c1ccc([N+](=O)[O-])cc1 [compound 248]	1
O=C1C(=NN=Cc2ccc(OCc3cn(Cc4ccc(F)cc4)nn3)cc2)c2ccccc2N1c1ccc(Br)cc1 [compound 262]	1
Fc1cccc(CNc2cccc(-c3nc4ccccc4[nH]3)c2)c1 [compound 260]	1
COc1ccc2nc3cc(Cl)ccc3c(SCC(=O)NCc3cccc(Cl)c3)c2c1 [compound 266]	1
COc1cc(-c2nc3ccccc3[nH]2)ccc1OCC(=O)Nc1ccc(F)cc1 [compound 261]	1
Brc1ccc(CNc2cccc(-c3nc4ccccc4[nH]3)c2)cc1 [compound 275]	1
O=C1C(=NNc2nncs2)c2ccccc2N1Cc1ccc(Cl)cc1 [compound 255]	1
Clc1ncccc1CNc1cccc(-c2nc3ccccc3[nH]2)c1 [compound 237]	1

Same assay, conditions: activity label of the modeling dataset (Table S5), α-glucosidase; 1 = active, 0 = inactive; cited from earlier work

SMILES	activity
CC1CCN(c2ccc(/C=N/Nc3nc(-c4ccc(Br)cc4)cs3)cc2)CC1 [compound 15]	0
Cc1ccc(-c2cc(-c3cccc([N+](=O)[O-])c3)c(C#N)c(N)c2C#N)cc1 [compound 20]	0
CC1CCCN(c2ccc(/C=N/Nc3nc(-c4ccc(Cl)cc4)cs3)cc2)C1 (stereo not drawn) [compound 13]	0
O=c1c(O[C@@H]2O[C@H](CO)[C@@H](O)[C@H](O)[C@H]2O)c(-c2ccc(O)c(O)c2)oc2cc(O)cc(O)c12 [compound 31]	0
Cc1ccc(-c2cc(-c3ccc([N+](=O)[O-])cc3)c(C#N)c(N)c2C#N)cc1 [compound 26]	0
O=C(O)c1ccc(-c2nc3ccc(C(=O)c4ccccc4)cc3[nH]2)cc1 [compound 5]	0
O=c1c(O[C@@H]2O[C@H](CO)[C@@H](O)[C@H](O)[C@H]2O)c(-c2ccc(O)cc2)oc2cc(O)cc(O)c12 [compound 41]	0
O=c1c(O[C@@H]2O[C@H](CO)[C@H](O)[C@H](O)[C@H]2O)c(-c2ccc(O)c(O)c2)oc2cc(O)cc(O)c12 [compound 38]	0
N#Cc1c(-c2ccc(Cl)cc2)cc(-c2ccccn2)c(C#N)c1N [compound 21]	0
O=c1c(OC2OC(CO)C(O)C(O)C2O)c(-c2cc(O)c(O)c(O)c2)oc2cc(O)cc(O)c12 (stereo not drawn) [compound 34]	0
O=C(c1ccccc1)c1ccc2nc(-c3ccccc3O)[nH]c2c1 [compound 30]	0
N#Cc1ccc2[nH]c(-c3nnc(Nc4ccc(Cl)cc4)s3)cc2c1 [compound 23]	0

Same assay, conditions: activity label of the modeling dataset, Table S5 (1 = active, 0 = inactive); cited from earlier work

SMILES	activity
Clc1ccc(Cn2cc(CSc3nnc(COc4cccc5cccnc45)o3)nn2)cc1 [compound 73]	0
CC(C)=CCSc1nnc(COc2cccc3cccnc23)o1 [compound 86]	0
CCCCCCCCCCCCN [compound 44]	0
CC1CCN(c2ccc(/C=N/Nc3nc(-c4ccc(O)c(O)c4)cs3)cc2)CC1 [compound 79]	0
Brc1ccc(-n2cc(CSc3nnc(COc4cccc5cccnc45)o3)nn2)cc1 [compound 81]	0
O=c1c(O[C@@H]2O[C@H](CO)[C@H](O)[C@H](O)[C@H]2O)c(-c2ccc(O)cc2)oc2cc(O)cc(O)c12 [compound 65]	0
Cc1cccc(C)c1-n1cc(CSc2nnc(COc3cccc4cccnc34)o2)nn1 [compound 58]	0
C=CCSc1nnc(COc2cccc3cccnc23)o1 [compound 85]	0
O=C(NNS(=O)(=O)c1cccc2ncccc12)c1cc2cc(F)ccc2[nH]1 [compound 90]	0
Cc1ccc(-c2csc(N/N=C/c3ccc(N4CCCC(C)C4)cc3)n2)cc1 (stereo not drawn) [compound 68]	0

Same assay, conditions: activity label of the modeling dataset, Table S5; cited from earlier work

SMILES	activity
Cc1ccc(Cn2cc(COc3ccc(/C=N/N=C4\C(=O)N(c5ccc(Br)cc5)c5ccccc54)cc3)nn2)cc1 [compound 147]	0
COc1cc(-c2oc3cc(O)cc(O)c3c(=O)c2O)ccc1O [compound 161]	1
N#Cc1ccc2[nH]c(-c3nnc(Nc4cccc([N+](=O)[O-])c4)s3)cc2c1 [compound 154]	1
COc1cc(/C=N/N=C2\C(=O)Nc3ccccc32)ccc1OCc1cn(Cc2ccccc2F)nn1 [compound 143]	0
O=[N+]([O-])c1cccc(/C(CSc2nnc3c(n2)[nH]c2ccccc23)=N\c2nnc(-c3cc(Cl)cc(Cl)c3O)s2)c1 [compound 180]	1
COc1cc(O)c(CC=C(C)C)c(O)c1C(=O)/C=C/c1ccc(O)cc1 [compound 167]	1
COc1ccc(Br)cc1-c1nnc(/N=C(/CSc2nnc3c(n2)[nH]c2ccccc23)c2cccc([N+](=O)[O-])c2)s1 [compound 164]	1
O=C(NNS(=O)(=O)c1ccc(Br)cc1)c1cc2cc(F)ccc2[nH]1 [compound 182]	1
COc1cc(/C=C(\C(=O)O)c2cc(/C=C/C(=O)O)cc(OC)c2O)ccc1O [compound 166]	1
COc1cc(/C=C(\Oc2ccc(/C=C/C(=O)O)cc2OC)C(=O)O)ccc1O [compound 157]	1
O=c1c(O[C@@H]2O[C@H](CO)[C@@H](O)[C@H](O)[C@H]2O)c(-c2ccc(O)c(O)c2)oc2cc(O)cc(O)c12 [compound 159]	1
COc1cc(/C=N/N=C2\C(=O)Nc3ccccc32)ccc1OCc1cn(Cc2ccc(F)cc2)nn1 [compound 144]	0

Same assay, conditions: activity label of the modeling dataset, sheet Table S5; 1 = active, 0 = inactive; cited from earlier work

SMILES	activity
COc1ccc(/C=N/N=C(/C)c2ccc([N+](=O)[O-])cc2)c(OC)c1 [compound 291]	1
COc1ccc(/C=N/N=C(/C)c2ccc([N+](=O)[O-])cc2)cc1 [compound 279]	1
Cc1ccc(-n2cc(/C=N\NC(=O)Nc3ccccc3)c(-c3ccc([N+](=O)[O-])cc3)n2)cc1 [compound 299]	1
